# Legend:
# Staph. aureus ATCC 25178 = test: Antimicrobial activity, agar dilution; format: cell-based, Staphylococcus aureus; settings: Staphylococcus aureus, ATCC25178, 20 h, Agar Dextrose dilutions, 37°C, 20 heures, read-out: Activité pharmacologique antimicrobienne (concentrations)
# From the text: (§1) L'activité pharmacologique antimicrobienne de ces composés a été étudiée selon les références exposées ci-dessous.
# (§2) Activité pharmacologique antimicrobienne : G.L. Daquet et Y.A. Chabbect, techniques en bactériologie, Vol. 3, Flammarion Médecine-Sciences, Paris 1972, et W.B. Hugo et A.D. Rusell, Pharmaceutical Microbiology, Blackwell Scientific Publications, London, 1977.
# (§3) Milieu de culture et solvant : Agar d'antibiotiques n° 1 (Oxoid CM 327) Bouillon de triptone-soja (Oxoid CM 129) Solution Physiologique Ringer 1/4 (Oxoid BR 52) Agar Dextrose (BBL 11165)
# (§4) Microorganismes : "Bacillus subtilis" ATCC 6633 "Citrobacter freundii" ATCC 112606 "Enterobacter aerogenes" ATCC 15038 "Enterobacter cloacae" ATCC 23355 "Bacillus cereus" ATCC 1178 "Escherichia coli" ATCC 10799 "Escherichia coli" ATCC 23559 "Klebsiella pneumoniae" ATCC 10031 "Proteus vulgaris" ATCC 8427 "Morg. morganii" ATCC 8019 "Pseudomonas aeruginosa" ATCC 9721 "Pseudomonas aeruginosa" ATCC 10145 "Salmonella typhimurium" ATCC 14028 "Salmonella typhimurium" ATCC 6539 "Serratia marcescens" ATCC 13880 "Shigella flexnerii" ATCC 12022 "Staphylococcusepidermis" ATCC 155-1 "Staphylococcus aureus" ATCC 25178 "Streptococcus faecalis" ATCC 10541.
# (§5) Chacun des microorganismes est ensemencé par strie dans des tubes d'Agar d'antibiotiques n° 1, et mis en incubation pendant 20 heures à 37°C. Ensuite, on prend une anse de culture, on ensemence dans un bouillon de Triptone-soja et on incube pendant 20 heures à 37°C. On dilue à 1/4 la culture obtenue avec une solution physiologique Ringer, de façon à obtenir une suspension normalisée de […] pour chaque organisme.
# (§6) A partir d'une solution de 100 µg/ml, chaque produit est dilué dans l'Agar Dextrose (préalablement fondu et maintenu à 50°C) par dilutions successives de façon à obtenir les concentrations suivantes : 64-32-16-8-4-2-1-0,5-0,25-0,125 µg de dérivé/ml du milieu.
# (§7) Postérieurement, chaque concentration de chaque produit est répartie dans des boîtes de Petri de 10 cm de diamètre, à raison de 10 ml de milieu par boîte et autant de boîtes que de microorganismes à tester.
# (§8) Une fois le milieu refroidi, les boîtes sont ensemencées avec les inoculations à raison de 0,4 ml d'inoculation par boîte. On les étend avec une anse de Driglasky et on recueille le surnageant. Les boîtes ensemencées sont incubées à 37°C pendant 20 heures.
# (§9) Les résultats obtenus sont décrits dans les tableaux suivants. Les concentrations sont données en µg/ml.
# [1] = system: Ent. aerogenes ATCC 15038; test: Antimicrobial activity, agar dilution; format: cell-based, Enterobacter aerogenes; settings: Klebsiella aerogenes, ATCC15038, 20 h, Agar Dextrose dilutions, 37°C, 20 heures, read-out: Activité pharmacologique antimicrobienne (concentrations)
# From the text: as §1, §2, §3, §4, §5, §6, §7, §8, §9
# Sal. typhi ATCC 6539 = test: Antimicrobial activity, agar dilution; format: cell-based; settings: Salmonella enterica, 20 h, read-out: Activité pharmacologique antimicrobienne (concentrations)
# From the text: as §1, §2, §3, §4, §5, §6, §7, §8, §9
# [2] = system: Escherichia coli ATCC 10799; test: Antimicrobial activity, agar dilution; format: cell-based; settings: Escherichia coli, ATCC10799, 20 h, Agar Dextrose dilutions, 37°C, 20 heures, read-out: Activité pharmacologique antimicrobienne (concentrations)
# From the text: as §1, §2, §3, §4, §5, §6, §7, §8, §9
# [3] = system: Ps. aeruginosa ATCC 10145; test: Antimicrobial activity, agar dilution; format: cell-based; settings: Pseudomonas aeruginosa, ATCC10145, 20 h, Agar Dextrose dilutions, 37°C, 20 heures, read-out: Activité pharmacologique antimicrobienne (concentrations)
# From the text: as §1, §2, §3, §4, §5, §6, §7, §8, §9
# Ps. aeruginosa ATCC 9721 = test: Antimicrobial activity, agar dilution; format: cell-based; settings: Pseudomonas aeruginosa, ATCC9721, 20 h, Agar Dextrose dilutions, 37°C, 20 heures, read-out: Activité pharmacologique antimicrobienne (concentrations)
# From the text: as §1, §2, §3, §4, §5, §6, §7, §8, §9
# [4] = system: Bacillus cereus ATCC 11778; test: Antimicrobial activity, agar dilution; format: cell-based; settings: Bacillus cereus, ATCC11778, 20 h, Agar Dextrose dilutions, 37°C, 20 heures, read-out: Activité pharmacologique antimicrobienne (concentrations)
# From the text: as §1, §2, §3, §4, §5, §6, §7, §8, §9
# [5] = system: Staph. epidermidis ATCC 155-1; test: Antimicrobial activity, agar dilution; format: cell-based; settings: Staphylococcus epidermidis, ATCC155, 20 h, Agar Dextrose dilutions, 37°C, 20 heures, read-out: Activité pharmacologique antimicrobienne (concentrations)
# From the text: as §1, §2, §3, §4, §5, §6, §7, §8, §9
# [6] = system: Escherichia coli ATCC 23559; test: Antimicrobial activity, agar dilution; format: cell-based; settings: Escherichia coli, ATCC23559, 20 h, Agar Dextrose dilutions, 37°C, 20 heures, read-out: Activité pharmacologique antimicrobienne (concentrations)
# From the text: as §1, §2, §3, §4, §5, §6, §7, §8, §9
# [7] = system: Shigella flexnerii ATCC 12022; test: Antimicrobial activity, agar dilution; format: cell-based; settings: ATCC12022, 20 h, Agar Dextrose dilutions, 37°C, 20 heures, read-out: Activité pharmacologique antimicrobienne (concentrations)
# From the text: as §1, §2, §3, §4, §5, §6, §7, §8, §9
# [8] = system: Proteus vulgaris ATCC 8427; test: Antimicrobial activity, agar dilution; format: cell-based; settings: Proteus vulgaris, ATCC8427, 20 h, Agar Dextrose dilutions, 37°C, 20 heures, read-out: Activité pharmacologique antimicrobienne (concentrations)
# From the text: as §1, §2, §3, §4, §5, §6, §7, §8, §9
# Morg. morganii ATCC 8019 = test: Antimicrobial activity, agar dilution; format: cell-based; settings: Morganella morganii, ATCC8019, 20 h, Agar Dextrose dilutions, 37°C, 20 heures, read-out: Activité pharmacologique antimicrobienne (concentrations)
# From the text: as §1, §2, §3, §4, §5, §6, §7, §8, §9
# [9] = system: Bacillus subtilis ATCC 6633; test: Antimicrobial activity, agar dilution; format: cell-based; settings: ATCC6633, 20 h, Agar Dextrose dilutions, 37°C, 20 heures, read-out: Activité pharmacologique antimicrobienne (concentrations)
# From the text: as §1, §2, §3, §4, §5, §6, §7, §8, §9
# [10] = system: Serr. marcescens ATCC 13880; test: Antimicrobial activity, agar dilution; format: cell-based, Serratia marcescens; settings: Serratia marcescens, ATCC13880, 20 h, Agar Dextrose dilutions, 37°C, 20 heures, read-out: Activité pharmacologique antimicrobienne (concentrations)
# From the text: as §1, §2, §3, §4, §5, §6, §7, §8, §9
# [11] = system: Sal. typhimurium ATCC 14028; test: Antimicrobial activity, agar dilution; format: cell-based, Salmonella typhimurium; settings: Salmonella enterica, 20 h, Agar Dextrose dilutions, 37°C, 20 heures, read-out: Activité pharmacologique antimicrobienne (concentrations)
# From the text: as §1, §2, §3, §4, §5, §6, §7, §8, §9
# [12] = Solubility in water and at pH 7.4; format: physicochemical
# From the text: Un grand nombre des composés de l'invention manifestent une augmentation de la solubilité dans l'eau ainsi que de la solubilité à pH 7,4 lorsqu'on compare avec les composés de référence. L'augmentation de solubilité au pH physiologique peut favoriser l'absorption du produit et la solubilité élevée dans l'eau permet l'administration du composé par voie parentérale.
# [13] = system: Strep. faecalis ATCC 10541; test: Antimicrobial activity, agar dilution; format: cell-based, Streptococcus faecalis; settings: Enterococcus faecalis, ATCC10541, 20 h, Agar Dextrose dilutions, 37°C, 20 heures, read-out: Activité pharmacologique antimicrobienne (concentrations)
# From the text: as §1, §2, §3, §4, §5, §6, §7, §8, §9
# [14] = system: Kleb. pneumoniae ATCC 10031; test: Antimicrobial activity, agar dilution; format: cell-based, Klebsiella pneumoniae; settings: Klebsiella pneumoniae, ATCC10031, 20 h, Agar Dextrose dilutions, 37°C, 20 heures, read-out: Activité pharmacologique antimicrobienne (concentrations)
# From the text: as §1, §2, §3, §4, §5, §6, §7, §8, §9
# [15] = system: Citr. freundii ATCC 11606; test: Antimicrobial activity, agar dilution; format: cell-based, Citrobacter freundii; settings: Citrobacter freundii, ATCC11606, 20 h, Agar Dextrose dilutions, 37°C, 20 heures, read-out: Activité pharmacologique antimicrobienne (concentrations)
# From the text: as §1, §2, §3, §4, §5, §6, §7, §8, §9
# Ent. cloacae ATCC 23355 = test: Antimicrobial activity, agar dilution; format: cell-based, Enterobacter cloacae; settings: Enterobacter cloacae, ATCC23355, 20 h, Agar Dextrose dilutions, 37°C, 20 heures, read-out: Activité pharmacologique antimicrobienne (concentrations)
# From the text: as §1, §2, §3, §4, §5, §6, §7, §8, §9
Structure (SMILES),MIC (Staph. aureus ATCC 25178) [µg/mL],MIC [1] [µg/mL],MIC (Sal. typhi ATCC 6539) [µg/mL],MIC [2] [µg/mL],MIC [3] [µg/mL],MIC (Ps. aeruginosa ATCC 9721) [µg/mL],MIC [4] [µg/mL],MIC [5] [µg/mL],MIC [6] [µg/mL],MIC [7] [µg/mL],MIC [8] [µg/mL],MIC (Morg. morganii ATCC 8019) [µg/mL],MIC [9] [µg/mL],MIC [10] [µg/mL],MIC [11] [µg/mL],solubility ([12]; pH 7) [µg/mL],MIC [13] [µg/mL],MIC [14] [µg/mL],MIC [15] [µg/mL],MIC (Ent. cloacae ATCC 23355) [µg/mL],also measured
"C[C@H](N)C(=O)NC1CN(c2nc3c(cc2F)c(=O)c(C(=O)O)cn3-c2ccc(F)cc2F)C1 [Exemple 4bA, chlorhydratede l'acide 7-(3-Ala-amino-1-azétidinyl)-1-(2,4-difluorophényl)-6-fluoro-1,4-dihydro-4-oxo-1,8-naphtyridine-3-carboxylique]",1,1,1,2,16,8,4,4,1,1,8,2,0.5,8,2,66.9,8,1,1,1,solubility ([12]; water): 128 µg/mL
"CCn1cc(C(=O)O)c(=O)c2cnc(N3CCNCC3)nc21 [Acide pipémidique, reference compound]",64,32,4,16,32,32,16,64,2,4,16,8,8,16,8,,> 64,2,4,8,
"NC1CN(c2nc3c(cc2F)c(=O)c(C(=O)O)cn3-c2ccc(F)cc2F)C1 [Exemple 1b, acide 7-(3-amino-1-azétidinyl)-1-(2,4-difluorophényl)-6-fluoro-1,4-dihydro-4-oxo-1,8-naphtyridine-3-carboxylique, reference compound]",,,,,,,,,,,,,,,,3.7,,,,,solubility ([12]; water): 3 µg/mL
C[C@@H]1[C@@H](NC(=O)[C@@H](C)N)CN1c1nc2c(cc1F)c(=O)c(C(=O)O)cn2C1CC1 [Exemple 4fa],1,4,4,4,> 16,> 16,1,0.25,1,1,8,8,0.5,16,4,> 500,1,8,4,4,solubility ([12]; water): > 500 µg/mL
CCC[C@H](N)C(=O)NC1CN(c2nc3c(cc2F)c(=O)c(C(=O)O)cn3-c2ccc(F)cc2F)C1 [Exemple 4bN],4,1,1,2,16,4,0.5,2,0.25,0.12,4,2,0.25,2,1,,4,0.12,1,0.5,
"C[C@H]1[C@H](N)CN1c1nc2c(cc1F)c(=O)c(C(=O)O)cn2C1CC1 [Exemple 1a, acide 7-[(2S,3R)-2-méthyl-3-amino-1-azétidinyl]-1-cyclopropyl-6-fluoro-1,4-dihydro-4-oxo-1,8-naphtyridine-3-carboxylique, reference compound]",,,,,,,,,,,,,,,,16.5,,,,,solubility ([12]; water): 23 µg/mL
"C[C@@H](N)C(=O)NC1(C)CN(c2c(F)cc3c(=O)c(C(=O)O)cn(C4CC4)c3c2F)C1 [Exemple 4ca, chlorhydratede l'acide 7-(3-méthyl-3-D-Ala-amino-1-azétidinyl)-1-cyclopropyl-6,8-difluoro-1,4-dihydro-4-oxo-3-quinoléinecarboxylique]",0.5,1,0.5,1,16,4,1,0.5,0.5,0.25,2,1,0.25,2,1,,8,0.25,1,0.5,

# Source: patent publication EP0514268A1, “Substituted amino acid azetidinyl pyridone derivatives, their preparation and use as medicines” (LABORATORIOS DEL DR. ESTEVE, S.A., priority 1991, dated 1992)
